The assay in a line: Adsorption on stent in plasma, fluorescence microscopy. In kind it is binding. Conditions: stent immersed in human plasma 37° C., 30 minutes, then 0.5 mM peptide or PEG-peptide conjugate solution 37° C. Here is the method:
Next, in order to analyze the binding ability of the peptide of the present invention to a stent existing in plasma, whether or not the peptide of the present invention binds to a stent that has been allowed to come into contact with plasma was examined.
That is, a stent was immersed in human plasma (37° C., 30 minutes), and was then removed from the plasma. The stent was then immersed in each peptide solution (0.5 mM) and a PEG-peptide conjugate solution (0.5 mM) (37° C., 30 minutes). Thereafter, the stent was sufficiently rinsed with PBS, and was then observed under a fluorescence microscope.
FIG. 15 and FIG. 16 show the fluorescence microscopic images of the stents, and the observed fluorescence intensities are summarized in FIG. 17. The method of digitizing the fluorescence intensity is as described above.

In the case of LTPHKHHKHLHA [YT07], the “binding to the surface of the stent after contact with human plasma” value is listed as “does not bind to a stent”.

(Values after patent US20210085807A1, “METAL-BINDING PEPTIDE AND USE THEREOF” (The University of Tokyo, priority 2018, published 2021).)
